Results reported in patent US11390604B2 (Hoffmann-La Roche Inc., priority 2019, dated 2022).
Counter-ions that a name gives are not always drawn.

system: Acinetobacter baumannii ATCC 17961; experiment: Antimicrobial susceptibility testing: 90% growth inhibitory concentration (IC90) determination; type: cell-based; conditions: ATCC17961, Acinetobacter baumannii ATCC 17961, Iso-Sensitest broth, read-out: ATCC 17961 IC90
How it was run: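 Growth was followed kinetically by OD600 at 20-min intervals for 16 h at 35±2 °C, with ~5×10^5 CFU/ml in Iso-Sensitest broth. Compounds were tested as twofold dilutions (e.g. 50–0.097 μM final). The concentration giving 90% inhibition of log-phase growth was reported.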

Structure (SMILES)	IC90 [nM]
Cn1c(-c2cn(CCC(F)(F)F)nc2C(F)(F)F)cnc1C(=O)Nc1ccc(C(=O)N2CCN(C(=O)C3CCNCC3)CC2)c(Cl)c1 [Example 98, N-[3-chloro-4-[4-(piperidine-4-carbonyl)piperazine-1-carbonyl]phenyl]-1-methyl-5-[3-(trifluoromethyl)-1-(3,3,3-trifluoropropyl)pyrazol-4-yl]imidazole-2-carboxamide;hydrochloride]	362
Cn1c(-c2cn(Cc3ccn[nH]3)nc2C(F)(F)F)cnc1C(=O)Nc1ccc(C(=O)N2CCN(C(=O)C3CCNCC3)CC2)c(Cl)c1 [Example 100, N-[3-chloro-4-[4-(piperidine-4-carbonyl)piperazine-1-carbonyl]phenyl]-1-methyl-5-[1-(1H-pyrazol-5-ylmethyl)-3-(trifluoromethyl)pyrazol-4-yl]imidazole-2-carboxamide]	1030
Cn1c(-c2cn(CC(C)(CO)CCl)nc2C(F)(F)F)cnc1C(=O)Nc1ccc(C(=O)N2CCN(C(=O)C3CCNCC3)CC2)c(Cl)c1 (stereo not shown) [Example 101, 5-[1-[2-(chloromethyl)-3-hydroxy-2-methylpropyl]-3-(trifluoromethyl)pyrazol-4-yl]-N-[3-chloro-4-[4-(piperidine-4-carbonyl)piperazine-1-carbonyl]phenyl]-1-methylimidazole-2-carboxamide;formic acid]	733
CC(C)n1cc(-c2cnc(C(=O)Nc3ccc(C(=O)N4CCN(C(=O)C5CCNCC5)CC4)c(Cl)c3)n2C)c(C(F)(F)F)n1 [Example 102, N-[3-chloro-4-[4-(piperidine-4-carbonyl)piperazine-1-carbonyl]phenyl]-1-methyl-5-[1-propan-2-yl-3-(trifluoromethyl)pyrazol-4-yl]imidazole-2-carboxamide;hydrochloride]	448
Cn1c(-c2cn(C(CO)CCl)nc2C(F)(F)F)cnc1C(=O)Nc1ccc(C(=O)N2CCN(C(=O)C3CCNCC3)CC2)c(Cl)c1 (stereo not shown) [Example 103, 5-[1-(1-chloro-3-hydroxypropan-2-yl)-3-(trifluoromethyl)pyrazol-4-yl]-N-[3-chloro-4-[4-(piperidine-4-carbonyl)piperazine-1-carbonyl]phenyl]-1-methylimidazole-2-carboxamide;hydrochloride]	678
Cn1c(-c2cn(CC3(CO)CC(C)(Cl)C3)nc2C(F)(F)F)cnc1C(=O)Nc1ccc(C(=O)N2CCN(C(=O)C3CCNCC3)CC2)c(Cl)c1 (stereo not shown) [Example 105, 5-[1-[[3-chloro-1-(hydroxymethyl)-3-methylcyclobutyl]methyl]-3-(trifluoromethyl)pyrazol-4-yl]-N-[3-chloro-4-[4-(piperidine-4-carbonyl)piperazine-1-carbonyl]phenyl]-1-methylimidazole-2-carboxamide;hydrochloride]	1610
Cc1nc(Cn2cc(-c3cnc(C(=O)Nc4ccc(C(=O)N5CCN(C(=O)C6CCNCC6)CC5)c(Cl)c4)n3C)c(C(F)(F)F)n2)no1 [Example 106, N-[3-chloro-4-[4-(piperidine-4-carbonyl)piperazine-1-carbonyl]phenyl]-1-methyl-5-[1-[(5-methyl-1,2,4-oxadiazol-3-yl)methyl]-3-(trifluoromethyl)pyrazol-4-yl]imidazole-2-carboxamide;hydrochloride]	848
Cn1c(-c2cn(CC3(C)CSC3)nc2C(F)(F)F)cnc1C(=O)Nc1ccc(C(=O)N2CCN(C(=O)C3CCNCC3)CC2)c(Cl)c1 [Example 107, N-[3-chloro-4-[4-(piperidine-4-carbonyl)piperazine-1-carbonyl]phenyl]-1-methyl-5-[1-[(3-methylthietan-3-yl)methyl]-3-(trifluoromethyl)pyrazol-4-yl]imidazole-2-carboxamide;hydrochloride]	444

Next, values leading:

IC90 [nM]	Structure (SMILES)
103	C#CCn1cc(-c2cnc(C(=O)Nc3ccc(C(=O)N4CCN(C(=O)[C@H]5[C@@H]6CNC[C@@H]65)CC4)c(Cl)c3)n2C)c(C(F)(F)F)n1 [Example 92, N-[3-chloro-4-[4-[rac-(1R,5S)-3-azabicyclo[3.1.0]hexane-6-carbonyl]piperazine-1-carbonyl]phenyl]-1-methyl-5-[1-prop-2-ynyl-3-(trifluoromethyl)pyrazol-4-yl]imidazole-2-carboxamide;hydrochloride]
557	C#CCn1cc(-c2cnc(C(=O)Nc3ccc(C(=O)N[C@H]4C[C@@H](N)C4)c(Cl)c3)n2C)c(C(F)(F)F)n1 [Example 93, N-[4-[(3-aminocyclobutyl)carbamoyl]-3-chlorophenyl]-1-methyl-5-[1-prop-2-ynyl-3-(trifluoromethyl)pyrazol-4-yl]imidazole-2-carboxamide;hydrochloride]
176	Cn1c(-c2cn(CC#N)nc2C(F)(F)F)cnc1C(=O)Nc1ccc(C(=O)N[C@H]2C[C@@H](N)C2)c(Cl)c1 [Example 94, N-[4-[(3-aminocyclobutyl)carbamoyl]-3-chlorophenyl]-5-[1-(cyanomethyl)-3-(trifluoromethyl)pyrazol-4-yl]-1-methylimidazole-2-carboxamide;2,2,2-trifluoroacetic acid]
422	C[C@@H](N)C(=O)N[C@H]1C[C@@H](NC(=O)c2ccc(NC(=O)c3ncc(-c4cn(CC#N)nc4C(F)(F)F)n3C)cc2Cl)C1 [Example 95, N-[4-[[3-[[(2R)-2-aminopropanoyl]amino]cyclobutyl]carbamoyl]-3-chlorophenyl]-5-[1-(cyanomethyl)-3-(trifluoromethyl)pyrazol-4-yl]-1-methylimidazole-2-carboxamide;2,2,2-trifluoroacetic acid]
498	Cn1c(-c2cn(CC#N)nc2C(F)(F)F)cnc1C(=O)Nc1ccc(C(=O)N[C@H]2C[C@@H](NC(=O)[C@H]3CC[C@@H](N)C3)C2)c(Cl)c1 [Example 96, N-[4-[[3-[[(1S,3R)-3-aminocyclopentanecarbonyl]amino]cyclobutyl]carbamoyl]-3-chlorophenyl]-5-[1-(cyanomethyl)-3-(trifluoromethyl)pyrazol-4-yl]-1-methylimidazole-2-carboxamide;2,2,2-trifluoroacetic acid]
595	Cn1c(-c2cn(C3CC3)nc2C(F)(F)F)cnc1C(=O)Nc1ccc(C(=O)N[C@H]2C[C@@H](N)C2)c(Cl)c1 [Example 97, N-[4-[(3-aminocyclobutyl)carbamoyl]-3-chlorophenyl]-5-[1-cyclopropyl-3-(trifluoromethyl)pyrazol-4-yl]-1-methylimidazole-2-carboxamide]
403	Cn1c(-c2cn(CF)nc2C(F)(F)F)cnc1C(=O)Nc1ccc(C(=O)N2CCN(C(=O)C3CCNCC3)CC2)c(Cl)c1 [Example 99, N-[3-chloro-4-[4-(piperidine-4-carbonyl)piperazine-1-carbonyl]phenyl]-5-[1-(fluoromethyl)-3-(trifluoromethyl)pyrazol-4-yl]-1-methylimidazole-2-carboxamide;hydrochloride]
1020	Cn1c(-c2cn(CCC(C)(C)O)nc2C(F)(F)F)cnc1C(=O)Nc1ccc(C(=O)N2CCN(C(=O)C3CCNCC3)CC2)c(Cl)c1 [Example 104, N-[3-chloro-4-[4-(piperidine-4-carbonyl)piperazine-1-carbonyl]phenyl]-5-[1-(3-hydroxy-3-methylbutyl)-3-(trifluoromethyl)pyrazol-4-yl]-1-methylimidazole-2-carboxamide;hydrochloride]
